Values of other authors, collected in patent publication US20250325549A1, “ORAL TABLET COMPOSITION OF RUXOLITINIB AND METHOD FOR PREPARING SAME” (SAMYANG HOLDINGS CORPORATION, priority 2021, published 2025).

Details: Shi et al., J. Clin. Pharmacol. 2012

Q: For `N#CC[C@H](C1CCCC1)n1cc(-c2ncnc3[nH]ccc23)cn1` [Ruxolitinib, (3R)-3-cyclopentyl-3-[4-(7H-pyrrolo[2,3-d]pyrimidin-4-yl)pyrazol-1-yl]propanenitrile], which half-life is on record?
A: Its half-life is “approximately 3 hours”.
